Entries after “also recorded” stand apart in the source; their conditions may differ. Bridge positions count the residues as written; N and C are the ends. Ends that are not written are not given here. I, II: the chains in the order shown.
How the values were obtained:
hα7 nAChR = hα7 nAChR (Homo sapiens, UniProt P36544); assay type: cell-based
hα4β2 nAChR = hα4β2 nAChR (Homo sapiens, UniProt P17787+P43681); assay type: cell-based
hα4β2 nAChR, sequence (P43681 29-627 limits assumed): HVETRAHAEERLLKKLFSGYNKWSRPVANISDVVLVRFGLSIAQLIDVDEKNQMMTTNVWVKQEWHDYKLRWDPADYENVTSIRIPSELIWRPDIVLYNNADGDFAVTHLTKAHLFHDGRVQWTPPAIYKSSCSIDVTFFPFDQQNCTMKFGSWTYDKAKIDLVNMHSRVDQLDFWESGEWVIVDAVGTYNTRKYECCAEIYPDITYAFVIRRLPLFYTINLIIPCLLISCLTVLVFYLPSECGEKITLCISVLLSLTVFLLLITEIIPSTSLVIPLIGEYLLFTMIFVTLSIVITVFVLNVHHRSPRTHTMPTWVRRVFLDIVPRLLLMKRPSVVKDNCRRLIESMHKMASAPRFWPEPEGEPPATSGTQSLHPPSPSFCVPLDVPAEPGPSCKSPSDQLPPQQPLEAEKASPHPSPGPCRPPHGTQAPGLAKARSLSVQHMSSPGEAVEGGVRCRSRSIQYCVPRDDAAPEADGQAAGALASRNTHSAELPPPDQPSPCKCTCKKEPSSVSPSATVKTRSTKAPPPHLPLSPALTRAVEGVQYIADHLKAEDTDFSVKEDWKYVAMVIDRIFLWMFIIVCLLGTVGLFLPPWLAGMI
hα4β2 nAChR, sequence (P17787 26-502 limits assumed): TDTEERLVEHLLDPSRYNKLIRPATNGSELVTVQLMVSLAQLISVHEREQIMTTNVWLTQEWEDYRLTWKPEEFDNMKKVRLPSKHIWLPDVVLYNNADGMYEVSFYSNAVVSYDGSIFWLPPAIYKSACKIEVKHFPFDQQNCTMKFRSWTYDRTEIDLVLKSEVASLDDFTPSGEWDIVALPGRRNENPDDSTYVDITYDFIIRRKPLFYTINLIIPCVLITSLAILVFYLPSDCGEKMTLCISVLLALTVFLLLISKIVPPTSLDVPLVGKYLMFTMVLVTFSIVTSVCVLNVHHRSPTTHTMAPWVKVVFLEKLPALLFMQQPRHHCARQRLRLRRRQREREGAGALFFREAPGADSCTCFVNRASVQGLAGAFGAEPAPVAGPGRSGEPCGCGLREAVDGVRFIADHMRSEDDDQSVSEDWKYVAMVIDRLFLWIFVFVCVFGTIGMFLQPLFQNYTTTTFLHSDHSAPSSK

hα7 nAChR, sequence (P36544 23-502 limits assumed): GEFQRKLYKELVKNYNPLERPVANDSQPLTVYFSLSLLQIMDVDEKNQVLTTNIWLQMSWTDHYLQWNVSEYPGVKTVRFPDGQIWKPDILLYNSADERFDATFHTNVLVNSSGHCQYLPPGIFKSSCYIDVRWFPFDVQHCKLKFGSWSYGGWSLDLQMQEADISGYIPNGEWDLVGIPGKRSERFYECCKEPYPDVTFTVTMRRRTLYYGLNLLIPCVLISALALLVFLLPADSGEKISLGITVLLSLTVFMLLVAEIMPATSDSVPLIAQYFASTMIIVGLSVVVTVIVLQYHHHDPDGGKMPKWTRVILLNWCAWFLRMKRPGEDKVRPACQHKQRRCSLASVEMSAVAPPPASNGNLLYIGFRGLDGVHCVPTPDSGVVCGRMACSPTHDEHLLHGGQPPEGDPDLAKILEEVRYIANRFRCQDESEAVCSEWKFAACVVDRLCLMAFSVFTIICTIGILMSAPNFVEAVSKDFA

I: EARITCQPRGRSKWGRCCLTQMCGNYCCYKHGCRCVYHSWRGHGCSC / II: EARITCQPRGRSKWGRCCLTQMCGNYCCYKHGCRCVYHSWRGHGCSC (disulfide I:6-II:18, I:17-I:27, I:18-II:6, I:23-I:35, I:28-I:45, I:33-I:47, II:17-II:27, II:23-II:35, II:28-II:45, II:33-II:47) [αD-FrXXA]
dissociation / reversibility on hα7 (hα7 nAChR): the slower dissociation was for hα7 subtype (almost irreversible) | dissociation / reversibility on hα4β2 (hα4β2 nAChR): the fastest was for hα4β2 subtype; also recorded: reversible almost entirely within a few minutes of washing
